The text below walks through data of PubChem BioAssay (NCI).

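Cells were grown in 96-well plates and exposed to each compound for 48 hours at five concentrations; endpoints were interpolated linearly between bracketing concentrations, or set to the highest concentration if not reached. GI50 is the concentration that inhibits growth by half. TGI marks complete inhibition of growth.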

Test systems include SR leukemia; HS 578T breast; IGROV1 ovarian; COLO 205 colon; M14 melanoma; SF-295 CNS; MOLT-4 leukemia; OVCAR-8 ovarian; K-562 leukemia; SW-620 colon.
Assay in all cases: DTP human tumour cell line panel, 48 h

Regarding `CC(=O)c1c(C)c2cnc(Nc3ccc(N4CCNCC4)cn3)nc2n(C2CCCC2)c1=O`, the GI50 is 1.88 µM with SR leukemia; 14.9 µM in the experiment on HS 578T breast; 7.35 µM in the experiment on IGROV1 ovarian; 1.33 µM with COLO 205 colon; 9.13 µM in the experiment with M14 melanoma; 12.9 µM in the experiment with SF-295 CNS. Besides, the GI50 with MOLT-4 leukemia is 0.548 µM; in the experiment on OVCAR-8 ovarian, 12.9 µM; in the experiment on K-562 leukemia it was 3.34 µM; with SW-620 colon it was 0.332 µM. The TGI in the experiment with SR leukemia is 20.7 µM; in the experiment with HS 578T breast it was 42.2 µM; with IGROV1 ovarian, 25 µM; in the experiment on COLO 205 colon it was 17.6 µM; in the experiment on M14 melanoma it was 23.6 µM; with SF-295 CNS it was 28.9 µM. Besides, the TGI is 24.9 µM with MOLT-4 leukemia, 28.7 µM in the experiment on OVCAR-8 ovarian, 19.7 µM in the experiment on K-562 leukemia and 19.1 µM with SW-620 colon.
On to `COC(=O)CC1=C(C)/C(=C/c2[nH]c(-c3ccc[nH]3)cc2OC)N=C1C`, for which the GI50 in the experiment with SR leukemia was 0.133 µM; with HS 578T breast it was 0.423 µM; in the experiment on IGROV1 ovarian it was 0.34 µM; in the experiment on COLO 205 colon, 0.123 µM; in the experiment with M14 melanoma it was 0.272 µM; in the experiment on SF-295 CNS, 0.332 µM. Moreover, the GI50 was 0.17 µM in the experiment with MOLT-4 leukemia, 0.236 µM with OVCAR-8 ovarian, 0.218 µM in the experiment on K-562 leukemia and 0.148 µM in the experiment with SW-620 colon. Moreover, the TGI in the experiment on SR leukemia came out at 0.677 µM; in the experiment on HS 578T breast, 2.14 µM; in the experiment with IGROV1 ovarian it was 6.69 µM; in the experiment with COLO 205 colon it was 0.814 µM; in the experiment with M14 melanoma, 0.863 µM; in the experiment with SF-295 CNS it was 1.69 µM. Besides, the TGI with MOLT-4 leukemia amounted to 3.48 µM; in the experiment on OVCAR-8 ovarian, 1.02 µM; with K-562 leukemia it was 10.6 µM; with SW-620 colon, 1.36 µM.
`C=C(C)C(=O)Nc1ccc(-c2c(-c3ccc(Oc4nccc(C)n4)c(F)c3)c3c(N)ncnc3n2C)cc1`: the GI50 was 2.36 µM in the experiment on SR leukemia; 1.09 µM with HS 578T breast; 3.1 µM in the experiment with IGROV1 ovarian; 3.79 µM in the experiment with COLO 205 colon; 5.64 µM in the experiment on M14 melanoma; 2.59 µM in the experiment with SF-295 CNS. The GI50 was 2.78 µM in the experiment on MOLT-4 leukemia, 4.49 µM in the experiment with OVCAR-8 ovarian, 3.43 µM in the experiment on K-562 leukemia and 8.7 µM in the experiment with SW-620 colon. In addition, the TGI was determined as 9.64 µM with SR leukemia; 4.1 µM in the experiment with HS 578T breast; 17.4 µM in the experiment on IGROV1 ovarian; 13.8 µM in the experiment on COLO 205 colon; 20 µM with M14 melanoma; 13.4 µM in the experiment on SF-295 CNS. Further, the TGI was more than 100 µM with MOLT-4 leukemia, 19.2 µM with OVCAR-8 ovarian, more than 100 µM with K-562 leukemia and 25.9 µM in the experiment with SW-620 colon.
Turning to `N=C(CC(=O)Nc1ccccn1)c1ccccc1`, the TGI in the experiment with SR leukemia, in the experiment on HS 578T breast, with IGROV1 ovarian, in the experiment with COLO 205 colon, with M14 melanoma and in the experiment with SF-295 CNS was more than 100 µM each time. In addition, the TGI in the experiment on MOLT-4 leukemia, with OVCAR-8 ovarian, in the experiment with K-562 leukemia and in the experiment with SW-620 colon was more than 100 µM each time.
Take `COc1cc(C(=O)n2nc(N)c3c(C)cc(C)nc32)cc(OC)c1OC`: the GI50 in the experiment with SR leukemia was 0.784 µM; in the experiment on HS 578T breast it was more than 100 µM; in the experiment with IGROV1 ovarian it was more than 100 µM; with COLO 205 colon it was more than 40.9 µM; in the experiment on M14 melanoma, more than 73.7 µM; with SF-295 CNS, more than 100 µM. For the same compound, the GI50 with MOLT-4 leukemia is 7.26 µM; in the experiment on OVCAR-8 ovarian, more than 100 µM; in the experiment on K-562 leukemia it was 0.488 µM; in the experiment with SW-620 colon, 2.48 µM. For the same compound, the TGI in the experiment on SR leukemia, in the experiment with HS 578T breast, in the experiment with IGROV1 ovarian, in the experiment with COLO 205 colon, in the experiment with M14 melanoma and in the experiment on SF-295 CNS was more than 100 µM in each case. Further, the TGI in the experiment with MOLT-4 leukemia, in the experiment with OVCAR-8 ovarian, in the experiment with K-562 leukemia and in the experiment on SW-620 colon was more than 100 µM in each case.
For `CSc1nc2c(c(=O)n1C)C(c1ccccc1)C1=C(N2)/C(=C/c2ccccc2)CCC1` (stereo not given), the GI50 with SR leukemia is 1.89 µM; in the experiment with HS 578T breast it was 10.2 µM; in the experiment on IGROV1 ovarian, 13.6 µM; in the experiment with COLO 205 colon it was 10.3 µM; in the experiment with M14 melanoma it was 6.56 µM; in the experiment on SF-295 CNS, 4.67 µM. For the same compound, the GI50 was 4.9 µM with MOLT-4 leukemia, 3.97 µM with OVCAR-8 ovarian, 2.86 µM in the experiment on K-562 leukemia and 2.53 µM in the experiment with SW-620 colon. The total growth inhibition concentration (TGI) was more than 100 µM in the experiment on SR leukemia; 93.8 µM in the experiment on HS 578T breast; more than 100 µM with IGROV1 ovarian; more than 100 µM with COLO 205 colon; more than 100 µM in the experiment on M14 melanoma; 34 µM with SF-295 CNS. Moreover, the TGI in the experiment with MOLT-4 leukemia is more than 100 µM; in the experiment on OVCAR-8 ovarian it was more than 100 µM; with K-562 leukemia, more than 100 µM; in the experiment on SW-620 colon it was 6.81 µM.

By GI50 is commonly meant the concentration that inhibits growth by half. A word on the TGI: it is the concentration at which net growth stops. A high value points to lower sensitivity of the cells.
